From patent US20090325978A1, “STABLE LYOPHILIZED PREPARATION” (priority 2006, published 2009)

Tests used:
[1] = solubility of the compound represented by formula (1) in pH regulating solution, HPLC; assay type: physicochemical; conditions: thermodynamic from solid, 50 mM citric acid pH regulator with sucrose and polyethylene glycol 600, 1 hour at 5° C.
Description: 0.525 g of citric acid monohydrate was dissolved in injection-use distilled water, and a sodium hydroxide solution was used to adjust the pH while 5 g of sucrose and 1 g of polyethylene glycol 600 (stabilizer) were dissolved, thereby preparing 50 mL of various 50 mM pH regulators (with a pH of 5.6, 5.8, 6.0, 6.2, 6.4, or 6.6) containing sucrose and the stabilizer. 3 mL of the pH regulating solution thus prepared was put into a 5 mL vial containing approximately 9 mg of the compound represented by formula (1), and this was stored for 1 hour at 5° C. while being stirred. Thereafter, the solution (including a suspension) was filtered (0.22 μm filter), the first 1 mL of the filtrate was discarded, and the solution thus obtained was subjected to high-performance liquid chromatography (HPLC) to measure the concentration of the compound represented by formula (1), which was termed the solubility of the compound represented by formula (1). The pH of the solution was also measured at the same time.

[2] = pKa of the compound represented by formula (1); assay type: physicochemical
[3] = formulation study of the compound represented by formula (1): stability and crystal dissolution; assay type: physicochemical
[4] = system: VEGF (vascular endothelial growth factor) production; conditions: low-oxygen state in vitro; cited from earlier work
solid tumor cell = conditions: in vivo; cited from earlier work

## CCC(O)C(C)C1OC1CC(C)(O)/C=C/C=C(\C)C1OC(=O)CC(O)CCC(C)(O)C(OC(=O)N2CCN(C3CCCCCC3)CC2)/C=C/C1C (stereo not drawn) [compound represented by formula (1), (8E,12E,14E)-7-((4-cycloheptylpiperazin-1-yl)carbonyl)oxy-3,6,16,21-tetrahydroxy-6, 10,12,16,20-pentamethyl-18,19-epoxytricosa-8,12,14-trien-11-olide]
[1]; aqueous with cosolvent or surfactant or cyclodextrin, pH 5.79
  solubility at 1 h: > 2440 µg/mL
[1]; aqueous with cosolvent or surfactant or cyclodextrin, pH 5.99
  solubility at 1 h: > 2310 µg/mL
[1]; aqueous with cosolvent or surfactant or cyclodextrin, pH 6.51
  solubility at 1 h: > 2720 µg/mL
[1]; aqueous with cosolvent or surfactant or cyclodextrin, pH 6.81
  solubility at 1 h: 2570 µg/mL
[1]; aqueous with cosolvent or surfactant or cyclodextrin, pH 7.04
  solubility at 1 h: 1800 µg/mL
[1]; pH 6.2, aqueous with cosolvent or surfactant or cyclodextrin, pH 6.20
  solubility at 1 h: > 2260 µg/mL
[2]
  pKa: ~7.9
[3]
  stability in the form of a crystalline powder: good stability
[3]; formulation of an injection
  stability in solution: not sufficiently stable
[3]; packed powder
  crystal dissolution: slow
[4]
  action on VEGF production: suppressing VEGF (vascular endothelial growth factor) production
Solid tumor cell
  action on solid tumor cell proliferation: suppressing solid tumor cell proliferation
